One data set has as its system healthy male subjects. Briefly: Phase I clinical trial, safety of escalating doses. The format is in vivo, human. Particulars: 12 healthy male subjects. The procedure:
Based on animal toxicological studies and on the accumulated data on human patients, S-ethylisothiouronium diethylphosphate was approved for a Phase I clinical trial. In this study, the pharmacokinetic profile as well as safety of escalating doses (0.6-2.4 mg/kg) of S-ethylisothiouronium diethylphosphate were assessed in 12 healthy male subjects.

Another data set has as its system rats. Put plainly: Animal toxicological studies (single or repeated dose, LD50).

Take S-ethylisothiouronium diethylphosphate: the Adverse events result with healthy male subjects (doses up to 1.2 mg/kg) was “no recorded adverse events”. In the data set on healthy male subjects (escalating doses 0.6-2.4 mg/kg), the Well tolerated dose entry is reported as “up to 1.2 mg/kg”. The LD50 result in the data set with rats (in rats) is given as “up to 400 mg/kg”. Also, in the data set with rats (rats LD50 vs therapeutically recommended dose of 0.6-1.2 mg/kg), the “LD50 relative to therapeutically recommended dose” value is recorded as 300-400 fold.

Source of the values: patent publication US20090186854A1, “S-ALKYLISOTHIOURONIUM DERIVATIVES FOR THE TREATMENT OF INFLAMMATORY DISEASES” (Meditor Pharmaceuticals Ltd., priority 2006, published 2009).
